Literature values, collected in PubChem BioAssay AID1259409 (Chemical Carcinogenesis Research Information System (CCRIS), 2018).

System: rodent chemically induced tumor inhibition, incidence and multiplicity
Assay: CCRIS tumor inhibitor studies
Conditions: Carcinogen: N-NITROSOBIS(2-OXYPROPYL)AMINE, 60599-38-4, Route [Inhibitor]: ORAL, Species: HAMSTER, Promoter: NONE USED

**Q.** For `CCNC(=O)/C=C(C)/C=C/C=C(C)/C=C/C1=C(C)CCCC1(C)C`, which “tumour outcome (control, treated, inhibition, significance)” value (Dose [Inhibitor]: 0.05, 0.1 OR 0.2 MILLIMOLAR/KG DIET FOR 32 WK STARTING 1 WK AFTER THE CARCINOGEN DOSE (STUDY DURATION: 33 WK), Strain/Sex: SYRIAN/FEMALE, Target Tissue: Type of Lesion: GALL BLADDER: ADENOMA, Dose [Carcinogen]: 40 MG/KG ONCE) is on record?
**A.** The value was 6/10 (60%), 2/23 (9%), 85%, p<0.025.

**Q.** And the “tumour outcome (control, treated, inhibition, significance)” value (Dose [Inhibitor]: 0.05, 0.1 OR 0.2 MILLIMOLAR/KG DIET FOR 32 WK STARTING 1 WK AFTER THE CARCINOGEN DOSE (STUDY DURATION: 33 WK), Strain/Sex: SYRIAN/FEMALE, Target Tissue: Type of Lesion: LIVER: ADENOMA, Dose [Carcinogen]: 40 MG/KG ONCE)?
**A.** Its value is 6/10 (60%), 13/23 (59%), 2%, not significant.

**Q.** What about the “tumour outcome (control, treated, inhibition, significance)” value (Dose [Inhibitor]: 0.05, 0.1 OR 0.2 MILLIMOLAR/KG DIET FOR 32 WK STARTING 1 WK AFTER THE CARCINOGEN DOSE (STUDY DURATION: 33 WK), Strain/Sex: SYRIAN/FEMALE, Target Tissue: Type of Lesion: LUNG: ADENOMA, Dose [Carcinogen]: 40 MG/KG ONCE) of the same compound?
**A.** Its value is 3/10 (30%), 9/23 (41%), -37%, not significant.

**Q.** And the “tumour outcome (control, treated, inhibition, significance)” value (Dose [Inhibitor]: 0.05, 0.1 OR 0.2 MILLIMOLAR/KG DIET FOR 32 WK STARTING 1 WK AFTER THE CARCINOGEN DOSE (STUDY DURATION: 33 WK), Strain/Sex: SYRIAN/FEMALE, Target Tissue: Type of Lesion: PANCREAS: ADENOMA, Dose [Carcinogen]: 40 MG/KG ONCE)?
**A.** The value was 10/10 (100%), 22/23 (96%), 4%, not significant.

**Q.** And the “tumour outcome (control, treated, inhibition, significance)” value (Dose [Inhibitor]: 0.05, 0.1 OR 0.2 MILLIMOLAR/KG DIET FOR 32 WK STARTING 1 WK AFTER THE CARCINOGEN DOSE (STUDY DURATION: 33 WK), Strain/Sex: SYRIAN/FEMALE, Target Tissue: Type of Lesion: PANCREAS: CARCINOMA, Dose [Carcinogen]: 40 MG/KG ONCE)?
**A.** Its value is 4/10 (40%), 10/23 (43%), -8%, not significant.

**Q.** And the “tumour outcome (control, treated, inhibition, significance)” value (Dose [Inhibitor]: 0.05, 0.1 OR 0.2 MILLIMOLAR/KG DIET FOR 32 WK STARTING 1 WK AFTER THE CARCINOGEN DOSE (STUDY DURATION: 33 WK), Strain/Sex: SYRIAN/MALE, Target Tissue: Type of Lesion: COMMON DUCT: ADENOMA, Dose [Carcinogen]: 40 MG/KG ONCE)?
**A.** The value was 4/12 (33%), 14/26 (54%), -64%, not significant.

**Q.** What about the “tumour outcome (control, treated, inhibition, significance)” value (Dose [Inhibitor]: 0.05, 0.1 OR 0.2 MILLIMOLAR/KG DIET FOR 32 WK STARTING 1 WK AFTER THE CARCINOGEN DOSE (STUDY DURATION: 33 WK), Strain/Sex: SYRIAN/MALE, Target Tissue: Type of Lesion: GALL BLADDER: ADENOMA, Dose [Carcinogen]: 40 MG/KG ONCE) of the same compound?
**A.** Its value is 3/12 (25%), 10/26 (39%), -56%, not significant.

**Q.** And the “tumour outcome (control, treated, inhibition, significance)” value (Dose [Inhibitor]: 0.05, 0.1 OR 0.2 MILLIMOLAR/KG DIET FOR 32 WK STARTING 1 WK AFTER THE CARCINOGEN DOSE (STUDY DURATION: 33 WK), Strain/Sex: SYRIAN/MALE, Target Tissue: Type of Lesion: LIVER: ADENOMA, Dose [Carcinogen]: 40 MG/KG ONCE)?
**A.** The value was 6/12 (50%), 12/26 (46%), 8%, not significant.

**Q.** And the “tumour outcome (control, treated, inhibition, significance)” value (Dose [Inhibitor]: 0.05, 0.1 OR 0.2 MILLIMOLAR/KG DIET FOR 32 WK STARTING 1 WK AFTER THE CARCINOGEN DOSE (STUDY DURATION: 33 WK), Strain/Sex: SYRIAN/MALE, Target Tissue: Type of Lesion: LUNG: ADENOMA, Dose [Carcinogen]: 40 MG/KG ONCE)?
**A.** Its value is 1/12 (8%), 2/26 (8%), 0%, not significant.

**Q.** And the “tumour outcome (control, treated, inhibition, significance)” value (Dose [Inhibitor]: 0.05, 0.1 OR 0.2 MILLIMOLAR/KG DIET FOR 32 WK STARTING 1 WK AFTER THE CARCINOGENDOSE (STUDY DURATION: 33 WK), Strain/Sex: SYRIAN/MALE, Target Tissue: Type of Lesion: PANCREAS: ADENOMA, Dose [Carcinogen]: 40 MG/KG ONCE)?
**A.** Its value is 12/12 (100%), 26/26 (100%), 0%, not significant.

**Q.** What about the “tumour outcome (control, treated, inhibition, significance)” value (Dose [Inhibitor]: 0.05, 0.1 OR 0.2 MILLIMOLAR/KG DIET FOR 32 WK STARTING 1 WK AFTER THE CARCINOGENDOSE (STUDY DURATION: 33 WK), Strain/Sex: SYRIAN/MALE, Target Tissue: Type of Lesion: PANCREAS: CARCINOMA, Dose [Carcinogen]: 40 MG/KG ONCE) of the same compound?
**A.** The value was 6/12 (50%), 13/26 (50%), 0%, not significant.

**Q.** And the “tumour outcome (control, treated, inhibition, significance)” value (Dose [Inhibitor]: 0.05, 0.1 OR 0.2 MM/KG DIET FOR 32 WK STARTING 1 WK AFTER THE CARCINOGEN DOSE (STUDY DURATION: 33 WK), Strain/Sex: SYRIAN/FEMALE, Target Tissue: Type of Lesion: PANCREAS: ADENOCARCINOMA, Dose [Carcinogen]: 40 MG/KG ONCE)?
**A.** Its value is 2/10 (20%), 2/23 (9%), 55%, not significant.

**Q.** What about the “tumour outcome (control, treated, inhibition, significance)” value (Dose [Inhibitor]: 0.05, 0.1 OR 0.2 MM/KG DIET FOR 32 WK STARTING 1 WK AFTER THE CARCINOGEN DOSE (STUDY DURATION: 33 WK), Strain/Sex: SYRIAN/FEMALE, Target Tissue: Type of Lesion: PANCREAS: CARCINOMA IN SITU, Dose [Carcinogen]: 40 MG/KG, ONCE, ONE WK PRIOR TO START OF AGENT TREATMENT) of the same compound?
**A.** The value was 1/10 (10%), 7/23 (30%), -200%, not significant.

**Q.** What about the “tumour outcome (control, treated, inhibition, significance)” value (Dose [Inhibitor]: 0.05, 0.1 OR 0.2 MM/KG DIET FOR 32 WK STARTING 1 WK AFTER THE CARCINOGEN DOSE (STUDY DURATION: 33 WK), Strain/Sex: SYRIAN/FEMALE, Target Tissue: Type of Lesion: PANCREAS: INTRADUCTAL CARCINOMA, Dose [Carcinogen]: 40 MG/KG, ONCE, ONE WK PRIOR TO START OF AGENT TREATMENT) of the same compound?
**A.** Its value is 2/10 (20%), 3/23 (9%), 55%, not significant.

**Q.** What about the “tumour outcome (control, treated, inhibition, significance)” value (Dose [Inhibitor]: 0.05, 0.1 OR 0.2 MM/KG DIET FOR 32 WK STARTING 1 WK AFTER THE CARCINOGEN DOSE (STUDY DURATION: 33 WK), Strain/Sex: SYRIAN/MALE, Target Tissue: Type of Lesion: PANCREAS: ADENOCARCINOMA, Dose [Carcinogen]: 40 MG/KG, ONCE, ONE WK PRIOR TO START OF AGENT TREATMENT) of the same compound?
**A.** The value was 1/12 (8%), 2/26 (8%), 0%, not significant.

**Q.** What about the “tumour outcome (control, treated, inhibition, significance)” value (Dose [Inhibitor]: 0.05, 0.1 OR 0.2 MM/KG DIET FOR 32 WK STARTING 1 WK AFTER THE CARCINOGEN DOSE (STUDY DURATION: 33 WK), Strain/Sex: SYRIAN/MALE, Target Tissue: Type of Lesion: PANCREAS: CARCINOMA IN SITU, Dose [Carcinogen]: 40 MG/KG, ONCE, ONE WK PRIOR TO START OF AGENT TREATMENT) of the same compound?
**A.** The value was 3/12 (25%), 8/26 (31%), -24%, not significant.

**Q.** What about the “tumour outcome (control, treated, inhibition, significance)” value (Dose [Inhibitor]: 0.05, 0.1 OR 0.2 MM/KG DIET FOR 32 WK STARTING 1 WK AFTER THE CARCINOGEN DOSE (STUDY DURATION: 33 WK), Strain/Sex: SYRIAN/MALE, Target Tissue: Type of Lesion: PANCREAS: INTRADUCTAL CARCINOMA, Dose [Carcinogen]: 40 MG/KG, ONCE, ONE WK PRIOR TO START OF AGENT TREATMENT) of the same compound?
**A.** Its value is 2/12 (17%), 3/26 (12%), 29%, not significant.

**Q.** What about the “tumour outcome (control, treated, inhibition, significance)” value (Dose [Inhibitor]: 0.05, 0.1 OR 0.2 MM/KG DIET FOR 32 WK STARTING 1 WK AFTER THE CARCINOGEN DOSE (STUDY DURATION: 33 WK), Strain/Sex: SYRIAN/MALE, Target Tissue: Type of Lesion: PANCREAS: MICROCARCINOMA, Dose [Carcinogen]: 40 MG/KG, ONCE, ONE WK PRIOR TO START OF AGENT TREATMENT) of the same compound?
**A.** The value was 3/12 (25%), 4/26 (15%), 40%, not significant.
